Results published in patent US8703790B2, “Bis [O-(14-benzoylaconine-8-yl)] esters” (priority 2008, dated 2014).

What was measured:
female Swiss mouse = assay: Acute systemic toxicity, preliminary test, intravenous; format: in vivo; conditions: for death of the animal, time after the test item administration: 1 female Swiss mouse
Description: The study has been performed to assess the acute systemic toxicity of SDD in the mouse preliminary test.
The SDD was administered, by intravenous route: • in a first step to 1 female Swiss mouse at the single dose of 95 mg/kg b.w., • in a second step to 1 female Swiss mouse at the single dose of 60 mg/kg b.w., • in a third step to 1 female Swiss mouse at the single dose of 55 mg/kg b.w., and • in a fourth step to a group of 2 female Swiss mice at the single dose of 50 mg/kg b.w.

A549 = assay: Cell cycle arrest, propidium iodide flow cytometry, A549; format: cell-based, human
Description: (§1) 10^6 Cells of A549, HCT-15 and MCF-7 cell lines have been seeded in Petri dishes with RPMI-1640 medium. 24 h later, SDD has been dissolved in water at a concentration of 20 μM and was directly added to the culture medium. Contact was maintained for 72 h. Then, cells have been detached by trypsinization, collected and rinsed by PBS and counted on hemocytometer. Cells were centrifuged for 5 min at 1500 rpm, then resuspended in a defined volume of PBS to obtain 2.5×10^6 cell/mL. 100 μL of cell suspension was digested to nuclei by trypsin for 10 min. Then, a solution containing trypsin inhibitor and RNAse was added to cell suspension and left for 10 min. Finally, cells were stained by propidium iodide and were analysed by flow-cytometry apparatus. Distribution of cells among the different phases of the cycle was determined by the procedure disclosed in: A detergent-trypsin method for preparation of nuclei for flow cytometric DNA analysis. Vindelov, L.; Christensen, I.; Nissen, N.; Cytometry (1983), 3, 323-327.
(§2) • G0G1: cell in the phase of GOG1 • G2M: cells in the phase of G2M • S: cells in the phase of DNA synthesis • Sub G1: apoptotic cells • SUP G2M: diploidic cells

HCT-15 = assay: Cell cycle arrest, propidium iodide flow cytometry, HCT-15; format: cell-based, human
Description: as §1, §2

MCF-7 (breast cancer) = assay: In vitro cytotoxicity test (MTT) against human tumour cell line MCF-7; format: cell-based; conditions: MCF-7, 24 h contact, 48 h re-growth
Description: Human tumour cell lines A549 (lung cancer), HCT-15 (colon cancer) and MCF-7 (breast cancer) have been obtained from the Developmental Therapeutics Program of the National Cancer Institute (Rockville, Md., USA). Cells were routinely grown with RPMI 1640 medium supplemented with 10% foetal calf serum, both obtained from Biochrom AG (Berlin, Germany). They were grown on Petri dishes (Nunc, Denmark) at 37° C. in a humidified atmosphere containing 5% CO2. Cells were replicated every 4 days and the medium changed once in-between.
Cytotoxicity has been evaluated on exponentially growing cells grown for 24 h in presence of the compounds to be tested. Briefly, 4000 cells were seeded in 96-well plates with 200 μL of complete medium; 24 hours later the medium was supplemented with a series of different concentrations of compounds and the contact maintained for 24 h. Compounds were dissolved in pure water and sterilised using polycarbonate membrane filters of 0.22 μm (Millipore, Molsheim, France). The cells were then allowed to re-grow for 48 hours; viable and metabolically active cells were quantitatively estimated by coloration with the MTT dye (1-(4,5-dimethylthyazol-2-yl)-3,5-diphenylformazan), Sigma-Aldrich Chimie, Saint-Quentin-Fallavier, France). The amount of substance allowing a 50% decrease in cell numbers is indicative of the cytotoxicity and represents the IC50 of compound.

[1] = Partition coefficient log D (pH 7.4), micro HPLC method, n-octanol/phosphate buffer; format: physicochemical; conditions: n-octanol/phosphate buffer pH 7.4
Description: The relative log D (pH 7.4) in this study was assessed by the micro HPLC method which is disclosed in A microscale HPLC method for the evaluation of octanol-water partition coefficients in a series of new 2-amino-2oxazolines Pehourcq, F.; Thomas, J.; Jarry, C., J. Liq. Chromatogr. Relat. Technol. (2000), 23, 443-453.
These determinations were performed with a chromatographic apparatus (Spectra Series, San Jose, USA). A reversed phase column was used: a Stability RP18 (4.6×150 mm; 5 μm particle size) with a mobile phase consisting of acetonitrile (+1‰ trifluoroacetic acid)−water (+1‰ trifluoroacetic acid) (40:60 v/v).
The compound was partitioned between n-octanol (HPLC grade) and phosphate buffer (pH=7.4). Octanol was presatured with buffer, and conversely. An amount of 1 mg of the compound was dissolved in an adequate volume of methanol in order to achieve 1 mg/mL stock solutions. Then, an appropriate aliquot of this methanolic solution was dissolved in buffer to obtain final concentration of 100 μg/mL. Under the above described chromatographic conditions, 20 μL of this aqueous phase was injected into the chromatograph, leading to the determination of a peak area before partitioning (W0).
In screw-capped tubes, 2000 μL of the aqueous phase (Vag) was then added to 10 μL of n-octanol (Voct) at pH=7.4. […] Log D was calculated from the formula: log D=log [(W0−W1)Vaq/W1Voct].

[2] = 50 mg/kg b.w. iv, 1 hour after administration
[3] = A549, SDD 20 μM, 72 h, percentage of total cell population
[4] = HCT-15, SDD 20 μM, 72 h, percentage of total cell population

For `CCN1C[C@]2(COC)[C@H](O)C[C@H](OC)[C@]34C1[C@H]([C@H](OC)[C@H]23)[C@]1(OC(=O)CCCCCCC(=O)O[C@]23[C@H]5[C@@H](OC(=O)c6ccccc6)[C@](O)(C[C@H]5[C@@]56C7[C@@H]2[C@H](OC)[C@@H]5[C@](COC)(CN7CC)[C@H](O)C[C@@H]6OC)[C@@H](OC)[C@@H]3O)[C@H]2[C@@H](OC(=O)c3ccccc3)[C@](O)(C[C@H]24)[C@@H](OC)[C@@H]1O` [SDD, bis[O-(14-benzoylaconine-8-yl)]-suberate], the “decrease of the righting reflex (animals affected)” value (female Swiss mouse; [2]) was 1/2, the “decrease of the spontaneous activity (animals affected)” value (female Swiss mouse; [2]) was 2/2 and the “local finding at the tails” value (female Swiss mouse; 50 mg/kg b.w. iv, first day to fourteenth day) was “oedema at the level of the tails”. For the same compound, the mortality (female Swiss mouse; 50 mg/kg b.w. single dose iv, 2 female Swiss mice) was “No mortality”, the macroscopical examination (female Swiss mouse; 50 mg/kg iv, end of the study) was “did not reveal any treatment-related changes” and the “death of the animal, time after the test item administration” value (“death of the animal, time” below) (female Swiss mouse; 55 mg/kg b.w. single dose iv) was 24 h. The “death of the animal, time” value (female Swiss mouse; 60 mg/kg b.w. single dose iv) was 3 h, the “death of the animal, time” value (female Swiss mouse; 95 mg/kg b.w. single dose iv) was “immediately” and the body weight evolution (female Swiss mouse; preliminary test, throughout the study) was “remained normal”. The “accumulation of cells in the G2M and S phases” value (A549; A549, 20 μM) was “significant accumulation”, the “increase of number of cells arrested at S phase as compared to control” value (A549; A549, SDD 20 μM) was “more than 100%” and the “increase of number of cells in the G2M phase as compared to control” value (A549; A549, SDD 20 μM) was 85%. For the same compound, the ALL % (A549; [3]) was 100%, the G0G1 % (A549; [3]) was 53.04% and the G2M % (A549; [3]) was 16.42%. The S % (A549; [3]) was 25.49%, the “SUP G2M % (diploidic cells)” value (A549; [3]) was 2.09% and the “SubG1 % (apoptotic cells)” value (A549; [3]) was 3.34%. For the same compound, the “cell distribution in the cell cycle” value (A549; A549, SDD concentration close to IC50) was “altered”, the “Percentage of survival cells, G0G1 %” value (A549; A549, SDD, survival cells) was 55.86% and the “Percentage of survival cells, G2M %” value (A549; A549, SDD, survival cells) was 17.29%. For the same compound, the “Percentage of survival cells, S %” value (A549; A549, SDD, survival cells) was 26.84%, the “accumulation of cells in the G2M and S phases” value (HCT-15; HCT-15, 20 μM) was “significant accumulation” and the “numbers of apoptotic cells (Sub G1)” value (HCT-15; HCT-15, 20 μM) was “significantly increased”. For the same compound, the “increase of number of cells arrested at S phase as compared to control” value (HCT-15; HCT-15, SDD 20 μM) was “more than 100%”, the “increase of number of cells in the G2M phase as compared to control” value (HCT-15; HCT-15, SDD 20 μM) was 75% and the ALL % (HCT-15; [4]) was 100%. It also gave a G0G1 % (HCT-15; [4]) of 30.67%, a G2M % (HCT-15; [4]) of 15.72% and a S % (HCT-15; [4]) of 26.35%. For the same compound, the “SUP G2M % (diploidic cells)” value (HCT-15; [4]) was 2.59%, the “SubG1 % (apoptotic cells)” value (HCT-15; [4]) was 23.65% and the “Percentage of survival cells, G0G1 %” value (HCT-15; HCT-15, SDD, survival cells) was 42.16%. The “Percentage of survival cells, G2M %” value (HCT-15; HCT-15, SDD, survival cells) was 21.61%, the “Percentage of survival cells, S %” value (HCT-15; HCT-15, SDD, survival cells) was 36.23% and the IC50 (MCF-7 (breast cancer)) was 3.7 µM. For the same compound, the “log D (pH 7.4)” value [1] was 2.86.
